Blank lines part the entries; values can stand above or below the molecule they belong to.
Assays:
[1] = Inhibition of gamma-secretase-mediated amyloid beta-42 production in diluted 2B7 conditioned media after 5 hrs
[2] = Inhibition of gamma-secretase-mediated amyloid beta-40 production in diluted 2B7 conditioned media after 5 hrs
[3] = Inhibition of gamma-secretase-mediated amyloid beta-38 production in diluted 2B7 conditioned media after 5 hrs
[4] = Half life in CD1 mouse at 30 mg/kg, po; assay type: ADME, organism-based; parameters: dose 30 mg/kg, route oral; details: in vivo
[5] = Inhibition of gamma-secretase assessed as ratio of amyloid beta-40 to amyloid beta-42 production in diluted 2B7 conditioned media after 5 hrs
[6] = Inhibition of gamma-secretase-mediated total amyloid beta production in diluted 2B7 conditioned media after 5 hrs
Gamma-secretase = test: Inhibition of gamma-secretase-mediated notch processing in human SUP-T1 cells after 1 hr by luminescent assay; assay type: cell-based
[7] = Half life in CD1 mouse at 1 mg/kg, iv; assay type: ADME, organism-based; parameters: dose 1 mg/kg, route intravenous; details: in vivo
[8] = Volume of distribution in CD1 mouse at 1 mg/kg, iv; assay type: ADME, organism-based; parameters: dose 1 mg/kg, route intravenous; details: in vivo
[9] = Clearance in CD1 mouse at 1 mg/kg, iv; assay type: ADME, organism-based; parameters: dose 1 mg/kg, route intravenous; details: in vivo
[10] = Oral bioavailability in CD1 mouse at 30 mg/kg; assay type: ADME, organism-based; details: in vivo
[11] = Ratio of drug level in brain to plasma in CD1 mouse at 30 mg/kg, po; assay type: ADME, organism-based; parameters: dose 30 mg/kg, route oral; details: read-out: BPR
[12] = AUC in CD1 mouse at 30 mg/kg, po; assay type: ADME, organism-based; parameters: dose 30 mg/kg, route oral; details: plasma
[13] = Drug level in CD1 mouse brain at 30 mg/kg, po after 4 hrs; assay type: ADME, organism-based; parameters: dose 30 mg/kg, route oral; details: read-out: Drug uptake
[14] = Drug level in CD1 mouse brain at 30 mg/kg, po after 6 hrs; assay type: ADME, organism-based; parameters: dose 30 mg/kg, route oral; details: read-out: Drug uptake
[15] = Drug level in CD1 mouse brain at 30 mg/kg, po after 8 hrs; assay type: ADME, organism-based; parameters: dose 30 mg/kg, route oral; details: read-out: Drug uptake
[16] = Drug level in CD1 mouse brain at 30 mg/kg, po after 24 hrs; assay type: ADME, organism-based; parameters: dose 30 mg/kg, route oral; details: read-out: Drug uptake
[17] = Plasma concentration in CD1 mouse at 30 mg/kg, po after 4 hrs; assay type: ADME, organism-based; parameters: dose 30 mg/kg, route oral
[18] = Plasma concentration in CD1 mouse at 30 mg/kg, po after 6 hrs; assay type: ADME, organism-based; parameters: dose 30 mg/kg, route oral
[19] = Plasma concentration in CD1 mouse at 30 mg/kg, po after 8 hrs; assay type: ADME, organism-based; parameters: dose 30 mg/kg, route oral
[20] = Plasma concentration in CD1 mouse at 30 mg/kg, po after 24 hrs; assay type: ADME, organism-based; parameters: dose 30 mg/kg, route oral
[21] = Metabolic stability in CD1 mouse liver microsomes assessed as compound remaining at 1 uM after 60 mins in absence of NADPH; assay type: ADME, Microsome; details: read-out: Stability
[22] = Metabolic stability in CD1 mouse liver microsomes assessed as compound remaining at 1 uM after 60 mins in presence of NADPH; assay type: ADME, Microsome; details: read-out: Stability
[23] = target: Gamma-secretase (Homo sapiens) (UniProt Q96BI3+Q9NZ42+Q8WW43+P49768+Q92542+P49810); test: Selectivity ratio of IC50 for gamma-secretase-mediated notch processing in human SUP-T1 cells to IC50 for gamma-secretase-mediated amyloid beta-42 production; assay type: cell-based
[24] = Dissociation constant, pKa of the compound; assay type: physicochemical
[25] = Drug level in CD1 mouse brain at 100 mg/kg, po after 2 hrs; assay type: ADME, organism-based; parameters: dose 100 mg/kg, route oral; details: read-out: Drug uptake
[26] = Drug level in CD1 mouse brain at 100 mg/kg, po after 4 hrs; assay type: ADME, organism-based; parameters: dose 100 mg/kg, route oral; details: read-out: Drug uptake
[27] = Drug level in CD1 mouse brain at 100 mg/kg, po after 6 hrs; assay type: ADME, organism-based; parameters: dose 100 mg/kg, route oral; details: read-out: Drug uptake
[28] = Inhibition of gamma-secretase-mediated amyloid beta-40 production in diluted 2B7 conditioned media at 20 uM after 5 hrs
[29] = Inhibition of gamma-secretase-mediated total amyloid beta production in diluted 2B7 conditioned media at 20 uM after 5 hrs
[30] = Plasma concentration in CD1 mouse at 100 mg/kg, po after 2 hrs; assay type: ADME, organism-based; parameters: dose 100 mg/kg, route oral
[31] = Plasma concentration in CD1 mouse at 100 mg/kg, po after 4 hrs; assay type: ADME, organism-based; parameters: dose 100 mg/kg, route oral
[32] = Plasma concentration in CD1 mouse at 100 mg/kg, po after 6 hrs; assay type: ADME, organism-based; parameters: dose 100 mg/kg, route oral
[33] = Inhibition of gamma-secretase-mediated amyloid beta-40 production in diluted 2B7 conditioned media at 0.8 uM after 5 hrs
[34] = Inhibition of gamma-secretase-mediated amyloid beta-37 production in diluted 2B7 conditioned media after 5 hrs

SMILES: CC(=O)O[C@@H]([C@H]1C[C@@H](C)[C@H]2[C@H](O1)[C@H](O)[C@@]1(C)[C@@H]3CC[C@H]4C(C)(C)[C@@H](O[C@H]5CNCCO5)CC[C@@]45C[C@@]35CC[C@]21C)C(C)(C)O
IC50 [1]: 0.055 µM
IC50 [2]: 1.4 µM
IC50 [3]: 0.08 µM
half-life [4]: 3 h
Ratio [5]: 25
IC50 [6]: 2.4 µM
IC50 (Gamma-secretase): > 4 µM
half-life [7]: 6.5 h
Vd [8]: 12.1 L/kg
clearance [9]: 51.7 mL/min/kg
bioavailability [10]: 37%
Kp [11]: 1.7
AUC [12]: 3620 ng·h/mL
concentration at 4 h [13]: 1340 ng/g
concentration at 6 h [14]: 1630 ng/g
concentration at 8 h [15]: 2260 ng/g
concentration at 24 h [16]: 116 ng/g
concentration at 4 h [17]: 1140 ng/mL
concentration at 6 h [18]: 840 ng/mL
concentration at 8 h [19]: 857 ng/mL
concentration at 24 h [20]: 31 ng/mL
remaining at 1 h, 1 µM [21]: 20%
remaining at 1 h, 1 µM [22]: 25%
Ratio IC50 [23]: > 70
pKa [24]: 7.7

SMILES: CC(=O)O[C@@H]([C@H]1C[C@@H](C)[C@H]2[C@H](O1)[C@H](O)[C@@]1(C)[C@@H]3CC[C@H]4C(C)(C)[C@@H](O[C@@H]5OC[C@@H](O)[C@H](O)[C@H]5O)CC[C@@]45C[C@@]35CC[C@]21C)C(C)(C)O
IC50 [1]: 0.06 µM
IC50 [2]: 1 µM
IC50 [3]: 0.084 µM

SMILES: CC(=O)O[C@@H]([C@H]1C[C@@H](C)[C@H]2[C@H](O1)[C@H](O)[C@@]1(C)[C@@H]3CC[C@H]4C(C)(C)[C@@H](O[C@H]5CN(C6COC6)CCO5)CC[C@@]45C[C@@]35CC[C@]21C)C(C)(C)O
concentration at 2 h [25]: 103 ng/g
concentration at 4 h [26]: 185 ng/g
concentration at 6 h [27]: 163 ng/g
IC50 [1]: 0.17 µM
IC50 [2]: 14.1 µM
IC50 [3]: 0.3 µM
half-life [4]: 2.3 h
inhibition [28]: 41%
Ratio [5]: 52
inhibition [29]: 44%
IC50 (Gamma-secretase): > 20 µM
half-life [7]: 0.3 h
Vd [8]: 0.6 L/kg
clearance [9]: 55 mL/min/kg
bioavailability [10]: 11%
Kp [11]: 0.23
AUC [12]: 1010 ng·h/mL
remaining at 1 h, 1 µM [21]: 1%
remaining at 1 h, 1 µM [22]: 1%
Ratio IC50 [23]: > 70
pKa [24]: 4.6
concentration at 2 h [30]: 279 ng/mL
concentration at 4 h [31]: 420 ng/mL
concentration at 6 h [32]: 453 ng/mL

IC50 [1]: 0.11 µM
inhibition [33]: 34%
SMILES: CC(=O)O[C@@H]([C@H]1C[C@@H](C)[C@H]2[C@H](O1)[C@H](O)[C@@]1(C)[C@@H]3CC[C@H]4C(C)(C)[C@@H](O[C@H]5CN(CCN6CCCC6)CCO5)CC[C@@]45C[C@@]35CC[C@]21C)C(C)(C)O

SMILES: CC(=O)O[C@@H]([C@H]1C[C@@H](C)C2=C(O1)[C@H](O)[C@@]1(C)[C@@H]3CC[C@H]4C(C)(C)[C@@H](O[C@@H]5OC[C@@H](O)[C@H](O)[C@H]5O)CC[C@@]45C[C@@]35CC[C@]21C)C(C)(C)O
IC50 [1]: 0.1 µM
IC50 [2]: 2.7 µM
IC50 [3]: 0.061 µM
IC50 [34]: 0.039 µM

IC50 [1]: 0.09 µM
inhibition [33]: 29%
SMILES: CC(=O)O[C@@H]([C@H]1C[C@@H](C)[C@H]2[C@H](O1)[C@H](O)[C@@]1(C)[C@@H]3CC[C@H]4C(C)(C)[C@@H](O[C@H]5CN(CCN(C)C)CCO5)CC[C@@]45C[C@@]35CC[C@]21C)C(C)(C)O

— ChEMBL document CHEMBL2150910, “Initial Optimization of a New Series of γ-Secretase Modulators Derived from a Triterpene Glycoside” (ACS Med Chem Lett, 2012)
